Measured values reported in patent US20210230134A1, “VITAMIN E DERIVATIVES AND THEIR USE AS MULTI-SCALE IMAGING AGENTS” (EXACT DELIVERY INC., priority 2018, published 2021).

Tests used:
[1] = biological target: T1, α-TTP (α-tocopherol transfer protein) (Homo sapiens, UniProt P49638); assay: Competitive displacement of TBtoc from pre-incubated complex with α-TTP; assay type: binding; settings: 0.4 μM TBtoc pre-incubated with 0.4 μM α-TTP; competitor in dioxane; TKE buffer
T1 sequence (P49638 1-278): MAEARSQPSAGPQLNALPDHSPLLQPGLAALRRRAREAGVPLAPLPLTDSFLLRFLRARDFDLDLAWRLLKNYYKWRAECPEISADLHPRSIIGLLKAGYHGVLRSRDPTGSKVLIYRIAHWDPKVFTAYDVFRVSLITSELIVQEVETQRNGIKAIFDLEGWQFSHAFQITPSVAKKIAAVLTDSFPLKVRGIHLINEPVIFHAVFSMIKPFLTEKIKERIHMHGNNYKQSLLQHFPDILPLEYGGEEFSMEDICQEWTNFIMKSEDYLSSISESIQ
Method: When α-TTP is pre-incubated with TBtoc, competitive assays are possible by the incremental addition of a specific ligand such as natural α-tocopherol. Cholesterol served as a negative control (FIG. 5). About 57% of the bound fluorescence could be competed of α-TTP by α-tocopherol, whereas only about 8% was lost with cholesterol.

[2] = tested on: C2C12 mouse myoblasts; assay: MTT tetrazolium reduction viability assay, C2C12 myoblasts; assay type: cell-based; settings: 24 h; for viability (formazan absorbance at 570 nm, MTT): 1 nM to 1 mM, vs 0.1% DMSO vehicle
Method: (§1) C2C12 mouse myoblasts and mouse embryonic fibroblasts (MEFs) were cultured in DMEM supplemented with 10% (v/v) FBS, 4500 mg/L glucose, 4 mM L-glutamine, 1 mM sodium pyruvate, 2% (v/v) MEM nonessential amino acid solution, and penicillin (50 I.U./mL)/streptomycin (50 μg/mL) solution (complete media). Cells were cultured in a humidified 5% CO2 atmosphere within a Thermo Forma Series II water-jacketed CO2 incubator maintained at 37° C. Cells were transferred to fresh 96- or 6-well plates (2,000 cells/well & 60,000 cells/well, respectively) in the evening prior to commencing tocopherol treatments.
(§2) Each tocopherol was dissolved in sterile 100% DMSO to yield a 1 M stock solution. Less concentrated stock solutions were subsequently prepared using ten-fold serial dilutions. All tocopherol solutions were stored at −20° C. To treat cultured cells, media was replaced with complete media containing freshly-added tocopherol; the final amount of vehicle (DMSO) for all concentrations tested was 0.1% (v/v).
(§3) Media was discarded, wells were washed once with phenol red-free complete culture media, and 100 μL/well phenol red-free complete culture media containing 0.45 mg/mL MTT was added. Two hours later, solubilization solution [40% (v/v) dimethylformamide, 2% (v/v) glacial acetic acid, 16% (w/v) sodium dodecyl sulfate, pH 4.7] was added (100 μL/well) and well contents were gently mixed by re-suspension to dissolve the formazan precipitate. Plates were incubated at room temperature in darkness for 2 h before recording absorbance at 570 nm using a Bio-Tek PowerWave Microplate UV-Vis spectrophotometer (Winooski, Vt., USA). For each plate, background signal averaged from cell-free wells containing vehicle treatments was subtracted
as §3, with “subtracted.” for “subtracted”

[3] = tested on: mouse embryonic fibroblasts (MEFs); assay: MTT tetrazolium reduction viability assay, MEFs; assay type: cell-based; settings: 24 h; for viability (formazan absorbance at 570 nm, MTT): 1 nM to 1 mM, vs 0.1% DMSO vehicle
Method: as §1, §2, §3
as §3, with “subtracted.” for “subtracted”

CC(C)CCC[C@@H](C)[C@H]1CC[C@H]2[C@@H]3CC=C4C[C@@H](O)CC[C@]4(C)[C@H]3CC[C@]12C [cholesterol]
bound fluorescence competed off α-TTP [1]: about 8%

Cc1c(C)c2c(c(C)c1O)CC[C@@](C)(CCC[C@H](C)CCC[C@H](C)CCCC(C)C)O2 [α-tocopherol, reference compound]
viability (formazan absorbance at 570 nm, MTT) [2]: no sensitivity | viability (formazan absorbance at 570 nm, MTT) [3]: no sensitivity | bound fluorescence competed off α-TTP [1]: About 57%

Cc1c(C)c2c(c(C)c1I)CC[C@@](C)(CCCC(C)CCCC(C)CCCC(C)C)O2 (stereo partly drawn) [I-Toc, (2R)-6-iodo-2,5,7,8-tetramethyl-2-(4.8.12-trimethyl-tridecyl)-chroman]
viability (formazan absorbance at 570 nm, MTT) [2]: no negative sensitivity | viability (formazan absorbance at 570 nm, MTT) [3]: no negative sensitivity

Cc1c(C)c2c(c(C)c1[19F])CC[C@@](C)(CCC[C@H](C)CCC[C@H](C)CCCC(C)C)O2 [F-Toc]
viability (formazan absorbance at 570 nm, MTT) [2]: no sensitivity | cytotoxic concentration (no cytotoxicity up to stated concentration) ([2]; MTT): > 1 mM | viability (formazan absorbance at 570 nm, MTT) [3]: no sensitivity | cytotoxic concentration (no cytotoxicity up to stated concentration) ([3]; MTT): > 1 mM
